Source: paper PMC7914897, “Cytotoxic Potential of a-Azepano- and 3-Amino-3,4-SeCo-Triterpenoids” (International Journal of Molecular Sciences, 2021)
Where two headings read alike, the source gives them in different places.

Legend:
[1] = test system: NIH 3T3 (non-malignant mouse fibroblasts); assay: SRB cytotoxicity assay, 72 h; assay type: cell-based; conditions: Mus musculus, NIH3T3; NIH 3T3, 72 h, cut-off 30 µM; read-out: EC50
Outline: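 Cytotoxicity is measured colorimetrically with sulforhodamine B after 72 h exposure to compound concentrations of 0–30 µM, added 24 h after seeding of exponentially growing cells. Survival relative to untreated wells yields EC50.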

[2] = test system: LOX IMVI (Melanoma); assay: NCI-60 screen (SRB, 48 h); assay type: cell-based; conditions: Homo sapiens; for GI50: read-out: GI50
[3] = test system: OVCAR-4 (Ovarian cancer); assay: NCI-60 screen (SRB, 48 h); assay type: cell-based; conditions: Homo sapiens; for IC (TGI): OVCAR-4, 48 h; for GI50: read-out: GI50
[4] = test system: Leukemia subpanel; assay: cells; conditions: Homo sapiens; for IC (TGI): 48 h, read-out: TGI MG_MID; for GI50: read-out: GI50 MG_MID
[5] = test system: OVCAR-3 (Ovarian cancer); assay: cells; conditions: Homo sapiens; for GI50: OVCAR-3; for IC (TGI): OVCAR-3, 48 h, read-out: TGI
[6] = test system: MDA-MB-468 (Breast cancer); assay: cells; conditions: Homo sapiens; for GI50: MDA-MB-468; for IC (TGI): MDA-MB-468, 48 h, read-out: TGI; for CC50: MDA-MB-468, read-out: LC50
[7] = test system: Colon Cancer subpanel; assay: NCI-60 screen, subpanel; conditions: Homo sapiens; for IC (TGI): 48 h, read-out: TGI MG_MID; for GI50: read-out: GI50 MG_MID; for CC50: read-out: LC50 MG_MID
[8] = test system: CNS cancer subpanel; assay: NCI-60 screen, subpanel; conditions: Homo sapiens; for IC (TGI): 48 h, read-out: TGI MG_MID; for GI50: read-out: GI50 MG_MID; for CC50: read-out: LC50 MG_MID
[9] = test system: Melanoma subpanel; assay: NCI-60 screen, subpanel; conditions: Homo sapiens; for IC (TGI): 48 h, read-out: TGI MG_MID; for GI50: read-out: GI50 MG_MID; for CC50: read-out: LC50 MG_MID
[10] = test system: Breast cancer subpanel; assay: NCI-60 screen, subpanel; conditions: Homo sapiens; for IC (TGI): 48 h, read-out: TGI MG_MID; for GI50: read-out: GI50 MG_MID; for CC50: read-out: LC50 MG_MID
[11] = test system: MOLT-4 (Leukemia); assay: NCI-60 screen (SRB, 48 h); conditions: Homo sapiens; for GI50: MOLT-4; for IC (TGI): MOLT-4, 48 h, read-out: TGI
[12] = test system: NCI-H226 (NSC lung cancer); assay: NCI-60 screen (SRB, 48 h); conditions: Homo sapiens; for GI50: NCI-H226; for IC (TGI): NCI-H226, 48 h, read-out: TGI
[13] = test system: NCI-H322M (NSC lung cancer); assay: NCI-60 screen (SRB, 48 h); conditions: Homo sapiens; for IC (TGI): 48 h, read-out: TGI
[14] = test system: NCI-H460 (NSC lung cancer); assay: NCI-60 screen (SRB, 48 h); conditions: Homo sapiens; for GI50: NCI-H460; for IC (TGI): NCI-H460, 48 h, read-out: TGI
[15] = test system: NCI-H522 (NSC lung cancer); assay: NCI-60 screen (SRB, 48 h); conditions: Homo sapiens; for GI50: NCI-H522; for IC (TGI): NCI-H522, 48 h, read-out: TGI
[16] = test system: HCC-2998 (Colon cancer); assay: NCI-60 screen (SRB, 48 h); conditions: Homo sapiens; for GI50: HCC 2998; for IC (TGI): HCC 2998, 48 h, read-out: TGI
[17] = test system: KM12 (Colon cancer); assay: NCI-60 screen (SRB, 48 h); conditions: Homo sapiens; for GI50: KM12; for IC (TGI): KM12, 48 h, read-out: TGI; for CC50: KM12, read-out: LC50
[18] = test system: SNB-75 (CNS cancer); assay: NCI-60 screen (SRB, 48 h); conditions: for GI50 / IC (TGI) / CC50: Homo sapiens; for GI50: SNB-75; for IC (TGI): SNB-75, 48 h, read-out: TGI; for CC50: SNB-75, read-out: LC50
[19] = test system: UACC-257 (Melanoma); assay: NCI-60 screen (SRB, 48 h); conditions: Homo sapiens; for GI50: UACC-257; for IC (TGI): UACC-257, 48 h, read-out: TGI; for CC50: UACC-257, read-out: LC50
[20] = test system: 786-0 (Renal cancer); assay: NCI-60 screen (SRB, 48 h); conditions: for GI50: 786-0; for IC (TGI): 786-0, 48 h, read-out: TGI
[21] = test system: A498 (Renal cancer); assay: NCI-60 screen (SRB, 48 h); conditions: for GI50 / IC (TGI) / CC50: Homo sapiens; for GI50: A498; for IC (TGI): A498, 48 h, read-out: TGI; for CC50: A498, read-out: LC50
[22] = test system: MDA-MB-31/ATCC (Breast cancer); assay: NCI-60 screen (SRB, 48 h); conditions: Homo sapiens; for IC (TGI): 48 h, read-out: TGI
[23] = test system: panel of approximately 60 cancer cell lines; assay: NCI-60 screen (SRB, 48 h), full panel; conditions: for activity at 10 µM / IC (TGI) / GI50 / CC50: Homo sapiens; for activity at 10 µM / IC (TGI): 48 h; for IC (TGI): read-out: TGI MG_MID60, average over all cell lines; for CC50: read-out: LC50 MG_MID60, average over all cell lines
[24] = read-out: GI50 against all human tumor cell lines
[25] = read-out: GI50 against the most sensitive cell lines

C=C(C)[C@@H]1CC[C@]2(C)[C@H](C=CC3=C4C[C@@](C)(CO)CC[C@]4(C)CC[C@]32C)[C@@]1(C)CCCN [Compound 20]
EC50 [1]: 3460 ± 300 nM
IC (TGI) ([2]; 48 h): 2.7 µM
activity at 10 µM ([2]; 48 h, 1 dose 10 µM, read-out: Growth % of the Most Sensitive Cell Lines): -100%
GI50 [2]: 1370 nM
CC50 ([2]; read-out: LC50 (the source's name)): 5.31 µM
IC (TGI) [3]: 3.09 µM
GI50 ([3]; OVCAR-4): 1530 nM
CC50 ([3]; OVCAR-4, read-out: LC50 (the source's name)): 6.23 µM
IC (TGI) [4]: 4.52 µM
GI50 [4]: 1820 nM
CC50 ([4]; read-out: LC50 MG_MID): > 100 µM
GI50 [5]: 1480 nM
IC (TGI) [5]: 2.85 µM
CC50 ([5]; OVCAR-3, read-out: LC50): 5.46 µM
GI50 [6]: 1580 nM
IC (TGI) [6]: 3.2 µM
CC50 [6]: 6.47 µM
IC (TGI) [7]: 2.98 µM
GI50 [7]: 1470 nM
CC50 [7]: 5.96 µM
IC (TGI) [8]: 3.18 µM
GI50 [8]: 1670 nM
CC50 [8]: 6.04 µM
IC (TGI) [9]: 3.22 µM
GI50 [9]: 1710 nM
CC50 [9]: 6.09 µM
IC (TGI) [10]: 3.41 µM
GI50 [10]: 1680 nM
CC50 [10]: 6.94 µM
GI50 [11]: 1780 nM
IC (TGI) [11]: 3.86 µM
GI50 [12]: 1850 nM
IC (TGI) [12]: 3.66 µM
GI50 [13]: 1570 nM
IC (TGI) [13]: 2.91 µM
CC50 ([13]; read-out: LC50): 5.43 µM
GI50 [14]: 1710 nM
IC (TGI) [14]: 3.33 µM
CC50 ([14]; NCI-H460, read-out: LC50): 6.49 µM
GI50 [15]: 1830 nM
IC (TGI) [15]: 3.63 µM
GI50 [16]: 790 nM
IC (TGI) [16]: 2.14 µM
CC50 ([16]; HCC 2998, read-out: LC50): 4.97 µM
GI50 [17]: 1600 nM
IC (TGI) [17]: 3.02 µM
CC50 [17]: 5.67 µM
GI50 [18]: 1530 nM
IC (TGI) [18]: 2.97 µM
CC50 [18]: 5.77 µM
GI50 [19]: 1820 nM
IC (TGI) [19]: 3.65 µM
CC50 [19]: 7.14 µM
Growth % of the Most Sensitive Cell Lines ([20]; 786-0, 1 dose 10 µM): −97.28%
GI50 ([20]; Homo sapiens): 1680 nM
IC (TGI) ([20]; Homo sapiens): 3.44 µM
CC50 ([20]; Homo sapiens, 786-0, read-out: LC50): 7.04 µM
GI50 [21]: 1540 nM
IC (TGI) [21]: 2.9 µM
CC50 [21]: 5.44 µM
GI50 [22]: 1770 nM
IC (TGI) [22]: 3.27 µM
CC50 ([22]; read-out: LC50): 6.02 µM
Positive Cytostatic Effect (cell lines with percent growth 0 to 50 / total) ([23]; 1 dose 10 µM): 8/60
Positive Cytotoxic Effect (cell lines with percent growth < 0 / total) ([23]; 1 dose 10 µM): 46/60
number of cancer cell lines the compound was active against ([23]; 1 dose 10 µM): 52 cell lines
activity at 10 µM ([23]; read-out: Mean Growth, %): -36.5%
activity at 10 µM ([23]; read-out: Range of Growth, %): -100 to 90.8%
IC (TGI) [23]: 3.36 µM
GI50 ([23]; read-out: GI50 MG_MID60): 1660 nM
GI50 [23, 24]: < 3000 nM
GI50 [23, 25]: 200 to 940 nM
CC50 [23]: 17.3 µM

C=C(C)[C@@H]1CC[C@]2(C(=O)N[C@H](CO)Cc3ccccc3)CC[C@]3(C)[C@H](CC[C@@H]4[C@@]5(C)CCCNC(C)(C)[C@@H]5CC[C@]43C)[C@@H]12 [Compound 11]
EC50 [1]: 1230 ± 300 nM
IC (TGI) ([2]; 48 h): 2.42 µM
GI50 [2]: 1070 nM
IC (TGI) [3]: 0.94 µM
GI50 ([3]; OVCAR-4): 240 nM
IC (TGI) [4]: 1.03 µM
GI50 [4]: 340 nM
GI50 [5]: 460 nM
IC (TGI) [5]: 1.6 µM
GI50 [6]: 1520 nM
IC (TGI) [6]: 3.03 µM
CC50 [6]: 6.01 µM
IC (TGI) [7]: 2.18 µM
GI50 [7]: 960 nM
CC50 [7]: 3.76 µM
IC (TGI) [8]: 3.08 µM
GI50 [8]: 1510 nM
CC50 [8]: 5.72 µM
IC (TGI) [9]: 2.87 µM
GI50 [9]: 1420 nM
CC50 [9]: 6.07 µM
IC (TGI) [10]: 3.16 µM
GI50 [10]: 1410 nM
CC50 [10]: 6.01 µM
GI50 [11]: 670 nM
IC (TGI) [11]: 2.3 µM
GI50 [12]: 1740 nM
IC (TGI) [12]: 4.01 µM
GI50 [13]: 1550 nM
IC (TGI) [13]: 2.79 µM
GI50 [14]: 1210 nM
IC (TGI) [14]: 2.77 µM
GI50 [15]: 1750 nM
IC (TGI) [15]: 3.35 µM
CC50 ([15]; NCI-H522, read-out: LC50): 6.4 µM
GI50 [16]: 1610 nM
IC (TGI) [16]: 3.05 µM
GI50 [17]: 1470 nM
IC (TGI) [17]: 2.91 µM
CC50 [17]: 5.78 µM
GI50 [18]: 1430 nM
IC (TGI) [18]: 2.87 µM
CC50 [18]: 5.72 µM
Growth % of the Most Sensitive Cell Lines ([18]; SNB-75, 1 dose 10 µM): −95.12%
GI50 [19]: 1780 nM
IC (TGI) [19]: 3.34 µM
CC50 [19]: 6.25 µM
GI50 ([20]; Homo sapiens): 400 nM
IC (TGI) ([20]; Homo sapiens): 1.6 µM
Growth % of the Most Sensitive Cell Lines ([21]; A498, 1 dose 10 µM): −97.92%
GI50 [21]: 1490 nM
IC (TGI) [21]: 2.94 µM
CC50 [21]: 5.81 µM
GI50 [22]: 1340 nM
IC (TGI) [22]: 2.77 µM
number of cancer cell lines the compound was active against ([23]; 1 dose 10 µM): effective against the all NCI-60 cancer cell line panel
activity at 10 µM ([23]; read-out: Mean Growth, %): -83.1%
activity at 10 µM ([23]; read-out: Range of Growth, %): -97.9 to -46.7%
IC (TGI) [23]: 2.64 µM
GI50 ([23]; read-out: GI50 MG_MID60): 1290 nM
GI50 [23, 24]: < 3000 nM
GI50 [23, 25]: 200 to 940 nM
CC50 [23]: 5.62 µM
